The subject of experiment [1] is MC3T3-E1 cells. The experiment can be described thus: XTT cell viability / cell proliferation assay. Format: cell-based, mouse. The procedure: (§1) The mouse calvaria cells MC3T3-E1 cells (ATCC-CRL-2593; #99072810; Sigma) are cultivated in a-MEM (Gibco—Invitrogen, Darmstadt; Germany) containing 20% fetal calf serum (FCS; Gibco). In addition, the medium is supplemented with 2 mM L-glutamine, 1 mM Na-pyruvate and 50 μg/ml of gentamycin. […] After reaching 80% confluency, the cells are detached using trypsin/EDTA and then subcultured at a density of 5·10^3 cells/ml. The cells are seeded at a density of 5·10^3 cells/well. Medium/serum change is every 3 d.
(§2) Retinol is dissolved in ethanol (1 mg/ml) and then diluted in DMSO (dimethyl sulfoxide). Incubation is performed for 3 d.
Cell proliferation/cell viability can be determined by the colorimetric XTT method ([Na-3′[1-(phenylamino-carbonyl)-3,4-tetrazolium]-bis(4-methoxy-6-nitro) benzene sulfonic acid] using, for example, the “Cell Proliferation Kit II” (Roche). The absorbance is determined at […] and subtracted from the background values ([…]). In the experiments described in Examples, the viable cells have been determined after 72 h.

In another experiment the test system is leptin receptor. The experiment can be described thus: RT-qPCR steady-state gene expression in MC3T3-E1 cells: leptin receptor. Format: cell-based, Mus musculus. The following applies: 3 d, GAPDH reference. The procedure:
(§3) As indicated, the following polyP preparations are added to the cells; […], et al. […] Retinol is dissolved in ethanol (1 mg/ml) and then diluted in DMSO (dimethyl sulfoxide). Incubation is performed for 3 d. In the indicated experiments, circular fiber mat samples (diameter of 15 mm) are inserted into each 24-well of the plates and seeded with MC3T3-E1 cells at a density of 5·10^3 cells/well. Then the assays are incubated for 3 d and subjected to microscopic as well as polymerase chain reaction analyses. The gene expression levels can be determined by applying the technique of reverse transcription-quantitative real-time polymerase chain reaction (RT-qPCR). […] Then the cells are harvested, their RNA is isolated and subjected to RT-qPCR. In the experiments described under Examples, the following primer pairs, matching with the respective mouse genes, are used: Fatty acid binding protein 4 (Mus musculus; accession number […]299] (SEQ ID NO: 1) and Rev: […]392] (SEQ ID NO: 2); product size 135 bp; leptin (M. musculus; […]2911] (SEQ ID NO: 3) and Rev: […]3019] (SEQ ID NO: 4); size 153 bp; and leptin receptor, transcript variant 2 (M. musculus; […]2592] (SEQ ID NO: 5) and Rev: […]2686] (SEQ ID NO: 6); size 139 bp. The GAPDH [glyceraldehyde 3-phosphate dehydrogenase (Mus GAPDH; NM_008084) is used as reference gene […]220] (SEQ ID NO: 7) and Rev: [NT]338 to nt316; size 139 bp] (SEQ ID NO: 8).

For experiment [2], the system named is fatty acid binding protein 4 (FABP4). The experiment can be described thus: RT-qPCR steady-state gene expression in MC3T3-E1 cells: FABP4. Format: cell-based, Mus musculus. The following applies: 3 d, GAPDH reference. The protocol: as §3
Experiment [3] has as its system MC3T3-E1 cells. The experiment can be described thus: Nile Blue A staining of cell monolayers. Format: cell-based, mouse. The following applies: 72 h, controls stained in blue. The protocol:
as §1, §2
The MC3T3-E1 cells are stained with Nile Blue A (Basic Blue 12, Nile blue sulfate; Sigma N0766) as described (Nakanishi T, Kato S. Impact of diabetes mellitus on myocardial lipid deposition: an autopsy study. Pathol Res Pract 2014; 210: 1018-1025). This staining reagent highlights in histological samples neutral lipids (triglycerides, cholesteryl esters, steroids) in pink, while acids (fatty acids, chromolipids, phospholipids) are stained in blue.

For a further experiment, the system named is leptin. The experiment can be described thus: RT-qPCR steady-state gene expression in MC3T3-E1 cells: leptin. Format: cell-based, Mus musculus. The following applies: 3 d, GAPDH reference. The protocol: as §3
Another experiment relates to ALP gene. The experiment can be described thus: qRT-PCR of ALP expression in hMSC differentiating towards odontoblasts. It counts as cell-based, human. The following applies: 30 μg/mL, time not stated (1-7 d series), without polyP approximately 0.02. The protocol:
The human multipotent stromal cells (hMSC) differentiate into odontoblasts in the presence of conditioned medium from developing tooth germ cells; the conditioned medium is prepared as described (Huo N, et al. (2010) Differentiation of dermal multipotent cells into odontogenic lineage induced by embryonic and neonatal tooth germ cell-conditioned medium. Stem Cells Dev 19:93-104). The description of the cultivation procedure for the hMSCs has been published (Wang X H, et al. (2014) The marine sponge-derived inorganic polymers, biosilica and polyphosphate, as morphogenetically active matrices/scaffolds for differentiation of human multipotent stromal cells: Potential application in 3D printing and distraction osteogenesis. Marine Drugs 12:1131-1147). The human cells can be obtained, after approval from the responsible ethics committee, from bone marrow aspirations after informed consent of the donors. Incubation was performed in a humidified incubator at 37° C. and 5% CO2. The sixth passage is used for the studies. The cells are incubated in α-MEM (Biochrom), supplemented with 20% fetal calf serum (FCS; Gibco Invitrogen) as well as with 100 units/mL penicillin and […] streptomycin. In addition, 5% of conditioned medium is added to the assays. […]

Experiment [4] can be described thus: In vitro incubation of teeth, polyP coating / dentinal tubule resealing (light microscopy, SEM). The following applies: 10 mg/mL; 2 d incubation. Also on record: species or system human. The protocol: In order to determine the efficacy of the aCa-polyP-MP to reseal the dentin layer and to check for the potency of the microparticles to occlude the dentinal tubules human teeth are used. Prior to use the teeth are mechanically cleaned from soft tissue, treated for 5 h in 3% Na-hypochlorite to remove tissue remains and then stored at 4° C. in a 100% relative humidity chamber.
Teeth specimens are submersed in saline (0.90% [w/v] NaCl) which contained, as mentioned in the text, either 10 mg/mL of aCa-polyP-MP or Na-polyP, stoichiometrically complexed with Ca^2+ (molar ratio of 2:1/phosphate monomer:Ca^2 [Müller W E G, et al. (2011) Inorganic polymeric phosphate/polyphosphate as an inducer of alkaline phosphatase and a modulator of intracellular Ca^2+ level in osteoblasts (SaOS-2 cells) in vitro. Acta Biomater 7:2661-2671]). Incubation is performed at 25° C. Then the samples are sliced by cutting 1-2 mm thick discs inwards to the pulp as described (Wang X H, et al. (2014) Enzyme-based biosilica and biocalcite: biomaterials for the future in regenerative medicine. Trends Biotechnol 32:441-447); where indicated, the dentin or enamel regions, as well as the cement layer, are included in the measurements. […]

Take `CC1=C(/C=C/C(C)=C/C=C/C(C)=C/CO)C(C)(C)CCC1` [retinol, all-trans retinol]: the “cell growth (XTT)” value with MC3T3-E1 cells [1] (retinol 3 μM as single component, 72 h) is “does not affect cell growth significantly”. The “leptin receptor steady-state expression versus untreated control” value with leptin receptor (3 μM retinol) is on record as “non-significant increase”. The “FABP4 steady-state expression versus untreated control” value in experiment [2] (3 μM retinol) was “non-significant increase”. Moreover, the “Nile Blue A staining colour of cells” value in the experiment with MC3T3-E1 cells [3] (3 μM retinol) is “highlight in light/bright pink”. The “leptin steady-state expression versus untreated control” value in the experiment on leptin (3 μM retinol) is reported as “non-significant increase”.
With Na-polyphosphate, the “ALP expression level, ratio to GAPDH” value in the experiment with ALP gene was determined as 0.53±0.01. Moreover, the “number of cells (XTT)” value in the experiment on MC3T3-E1 cells [1] (72 h incubation, below a concentration of 3 μg/ml) was “no effect on the number of cells”. In addition, in the experiment with leptin receptor (3 μg/ml, control set to 1), the “leptin receptor steady-state expression versus untreated control” value is “did not change significantly”. In addition, in experiment [4], the “additional (polyP) layer on top of the cement, light microscopy” value was “no additional layer was observed” and the “surface texture / roughness of treated teeth, light microscopy” value is “coarse texture”. Besides, the “FABP4 steady-state expression versus untreated control” value in experiment [2] (3 μg/ml, control set to 1) was “did not change significantly”. The “Nile Blue A staining colour of cells” value with MC3T3-E1 cells [3] (3 μg/ml) is listed as “highlight in light/bright pink”. Besides, in the experiment on leptin (3 μg/ml, control set to 1), the “leptin steady-state expression versus untreated control” value is recorded as “did not change significantly”.

The values above are taken from US20170319740A1, “Bioactive Wound Dressing and Teeth Coating Based on Morphogenetically Active Amorphous Calcium Polyphosphate” (NanotecMARIN GmbH, priority 2014, published 2017).
